Data taken from paper PMC8765437, “GSK3640254 Is a Novel HIV-1 Maturation Inhibitor with an Optimized Virology Profile” (Antimicrobial Agents and Chemotherapy, 2022).
Read-outs that look alike come from different tables or passages of the source.

Test system: NLRepRlucP373S viruses containing Gag SDMs or gag/pr genes from clinical isolates
Test: Multiple-cycle replication assay, NLRepRluc reporter viruses in MT-2 cells, luciferase endpoint
Format: cell-based, HIV-1
Source text: Multiple-cycle assays using recombinant viruses or clinical isolates were used to assess MI antiviral activity as described previously ([10]). pNLRepRlucP373S (the P373S change is in the Gag gene and converts an outlier polymorphism in the NL4-3 gene to the prevalent amino acid in the population) plasmids containing SDMs in Gag or gag/pr regions from clinical isolates were transfected into HEK 293T cells, and the supernatant containing recombinant virus was harvested after 4 to 5 days. Virus was used to infect MT-2 cells in the presence of a 3-fold serially diluted compound at a final dimethyl sulfoxide (DMSO) concentration of 1%. The inocula of the reporter viruses were determined based on the luciferase activity detected on day 4 postinfection. The MOI (ratio of infectious virions to target cells) of reporter-free laboratory strains and clinical isolates was 0.005, as derived from a tissue culture infectious dose study. Clinical isolates or reporter-free viruses were examined in the reporter CEM-NKR-CCR5-Luc cells or PBMCs at MOIs ranging from 0.005 to 0.01. Each infection started with a drug-free preincubation of the cell-virus mixtures, performed at 37°C and 5% CO2 for either 1 h at 2 times the final cell density (reporter viruses) or 1 h (reporter-free laboratory strains) or 3 h (clinical isolates) using cell pellets in 0.5 mL of medium. After preincubation, cell-virus mixtures were added to compound-containing 96-well plates for a final cell density of either 10,000 (MT-2 cells for reporter viruses), 20,000 (MT-2 and PM1 cells for reporter-free laboratory strains), 200,000 (PBMCs for clinical isolates), or 500,000 (CEM-NKR-CCR5-Luc for reporter-free laboratory strains) cells per well. The CEM-NKR-CCR5-Luc cell assay was performed in the presence of Polybrene (10 μg/mL). Virus growth was determined on days 4 to 5 postinfection for reporter variants or days 5 to 11 for the other viruses. The reporter viruses were detected by a luciferase assay according to manufacturer protocols (Brite-Glo luciferase kit [Promega] for CEM-NKR-CCR5-Luc cells and Dual-Luciferase Reporter 1000 assay system [Promega] for the other cells), and luminescence was detected on a Wallac Trilux. The growth of clinical isolates in PBMCs was quantitated by reverse transcriptase activity in a 96-well scintillation proximity assay (SPA). Twenty microliters of culture supernatants was mixed with 40 μL of reaction cocktail (62.5 mM Tris-HCl [pH 7.8], 100 mM KCl, 0.0625% NP-40, 2.5 mM dithiothreitol [DTT], 6.25 mM MgCl2, 1 mM EGTA, 6.25 μg/mL of poly rA, 2.5 μg/mL of streptavidin SPA beads prebound with biotinylated-dT12-18, and 1 μCi of [^3H]TTP). Mixtures were incubated at 37°C for ∼3 h and quenched with 100 μl of 0.25 M EDTA per well. Luminescence was detected on a Wallac Trilux programmed for tritium counting with SPA beads in opaque plates. The growth of the reporter-free laboratory M-tropic strains and clinical isolates was monitored by a p24 enzyme-linked immunosorbent assay (ELISA; PerkinElmer Life Sciences, Waltham, MA) performed on culture supernatants. […] A 1:1,000 dilution of cell supernatant in PBS was generally observed to fall in the dynamic range of the endpoint signal.
Maximal percent inhibition values were calculated as MPI = 100 – (mean signals at the 2 highest concentrations of compound/mean signal of 2 no-drug control wells) × 100.

[1] = Human immunodeficiency virus 1, MT2, ΔV370, 10% FBS

C=C(C)[C@@H]1CC[C@]2(NCCN3CCS(=O)(=O)CC3)CC[C@]3(C)[C@H](CC[C@@H]4[C@@]5(C)CC=C(C6=CC[C@@](CF)(C(=O)O)CC6)C(C)(C)[C@@H]5CC[C@]43C)[C@@H]12 [GSK’254]
EC90 (Human immunodeficiency virus 1, MT2, read-out: PBA EC90, subtype B gag/pr 93US155 (V370T)): 14 nM
EC90 (Human immunodeficiency virus 1, MT2, read-out: PBA EC90, subtype B gag/pr 411-1-C (Wild-type)): 7 nM
EC90 (Human immunodeficiency virus 1, MT2, read-out: PBA EC90, subtype B gag/pr 220162 (Wild-type)): 40 nM
EC90 (Human immunodeficiency virus 1, MT2, read-out: PBA EC90, subtype B gag/pr 400024 (V370M)): 10 nM
EC90 (Human immunodeficiency virus 1, MT2, read-out: PBA EC90, subtype B gag/pr 400051 (V370A)): 21 nM
EC90 (Human immunodeficiency virus 1, MT2, read-out: PBA EC90, subtype B gag/pr 1000038 (V362I/V370A)): 43 nM
EC90 (Human immunodeficiency virus 1, MT2, read-out: PBA EC90, subtype B gag/pr 1000156 (V362I)): 63 nM
EC90 (Human immunodeficiency virus 1, MT2, read-out: PBA EC90, subtype B gag/pr 1900120 (V370M)): 11 nM
EC90 (Human immunodeficiency virus 1, MT2, read-out: PBA EC90, subtype B gag/pr 1900140 (V362I)): 47 nM
EC90 (Human immunodeficiency virus 1, MT2, read-out: PBA EC90, subtype C gag/pr 93MW690): 17 nM
EC90 (Human immunodeficiency virus 1, MT2, read-out: PBA EC90, subtype C gag/pr 97ZA003): 24 nM
EC90 (Human immunodeficiency virus 1, MT2, read-out: PBA EC90, subtype C gag/pr 98CN009): 27 nM
EC90 (Human immunodeficiency virus 1, MT2, read-out: PBA EC90, subtype C gag/pr 98IN026): 16 nM
EC90 (Human immunodeficiency virus 1, MT2, read-out: PBA EC90, subtype C gag/pr 11657-3): 37 nM
EC90 (Human immunodeficiency virus 1, MT2, read-out: PBA EC90, subtype C gag/pr 20635-4): 40 nM
EC90 (Human immunodeficiency virus 1, MT2, read-out: PBA EC90, subtype C gag/pr 1700141): 19 nM
EC90 (Human immunodeficiency virus 1, MT2, read-out: PBA EC90, subtype C gag/pr 1900543): 24 nM
EC90 (Human immunodeficiency virus 1, MT2, read-out: mean PBA EC90, 44-member library of genotyped chimeric and SDM viruses, protein-binding adjusted): 33 nM
EC50 (Human immunodeficiency virus 1, MT2, subtype B gag/pr 4NRR (Wild-type)): 1 nM
EC50 (Human immunodeficiency virus 1, MT2, subtype B gag/pr 28-MDR (Wild-type)): 1 nM
EC50 (Human immunodeficiency virus 1, MT2, subtype B gag/pr 92BR014 (V370M)): 1 nM
EC50 (Human immunodeficiency virus 1, MT2, subtype B gag/pr 92BR018 (V, QAΔ)): 1 nM
EC50 (Human immunodeficiency virus 1, MT2, subtype B gag/pr 92TH014 (V362I)): 1 nM
EC50 (Human immunodeficiency virus 1, MT2, subtype B gag/pr 92TH026 (V362I)): 4 nM
EC50 (Human immunodeficiency virus 1, MT2, subtype B gag/pr 92US072 (V362I)): 1 nM
EC50 (Human immunodeficiency virus 1, MT2, subtype B gag/pr 92US729 (Wild-type)): 1 nM
EC50 (Human immunodeficiency virus 1, MT2, subtype B gag/pr 93BR008 (V362I)): 2 nM
EC50 (Human immunodeficiency virus 1, MT2, subtype B gag/pr 93BR009 (V370M)): 2 nM
EC50 (Human immunodeficiency virus 1, MT2, subtype B gag/pr 93BR017 (V, QAΔ)): 2 nM
EC50 (Human immunodeficiency virus 1, MT2, subtype B gag/pr 93BR022 (V, QAΔ)): 3 nM
EC50 (Human immunodeficiency virus 1, MT2, subtype B gag/pr 93TH0647 (V362I)): 2 nM
EC50 (Human immunodeficiency virus 1, MT2, subtype B gag/pr 93US141 (V362I)): 2 nM
EC50 (Human immunodeficiency virus 1, MT2, subtype B gag/pr 93US155 (V370T)): 1 nM
EC50 (Human immunodeficiency virus 1, MT2, subtype B gag/pr 411-1-C (Wild-type)): 0.5 nM
EC50 (Human immunodeficiency virus 1, MT2, subtype B gag/pr 220162 (Wild-type)): 2 nM
EC50 (Human immunodeficiency virus 1, MT2, subtype B gag/pr 400024 (V370M)): 1 nM
EC50 (Human immunodeficiency virus 1, MT2, subtype B gag/pr 400051 (V370A)): 1 nM
EC50 (Human immunodeficiency virus 1, MT2, subtype B gag/pr 1000038 (V362I/V370A)): 3 nM
EC50 (Human immunodeficiency virus 1, MT2, subtype B gag/pr 1000156 (V362I)): 4 nM
EC50 (Human immunodeficiency virus 1, MT2, subtype B gag/pr 1900120 (V370M)): 1 nM
EC50 (Human immunodeficiency virus 1, MT2, subtype B gag/pr 1900140 (V362I)): 1 nM
EC50 (Human immunodeficiency virus 1, MT2, subtype C gag/pr 93MW690): 1 nM
EC50 (Human immunodeficiency virus 1, MT2, subtype C gag/pr 97ZA003): 1 nM
EC50 (Human immunodeficiency virus 1, MT2, subtype C gag/pr 98CN009): 1 nM
EC50 (Human immunodeficiency virus 1, MT2, subtype C gag/pr 98IN026): 1 nM
EC50 (Human immunodeficiency virus 1, MT2, subtype C gag/pr 10215-6): 1 nM
EC50 (Human immunodeficiency virus 1, MT2, subtype C gag/pr 11657-3): 2 nM
EC50 (Human immunodeficiency virus 1, MT2, subtype C gag/pr 20635-4): 1 nM
EC50 (Human immunodeficiency virus 1, MT2, subtype C gag/pr 20706-3): 1 nM
EC50 (Human immunodeficiency virus 1, MT2, subtype C gag/pr 1300495): 1 nM
EC50 (Human immunodeficiency virus 1, MT2, subtype C gag/pr 1700141): 2 nM
EC50 (Human immunodeficiency virus 1, MT2, subtype C gag/pr 1900543): 1 nM
EC50 [1]: 4.4 nM
EC90 [1]: 7.8 nM
MPI (SDM A326T/V362I/V370A): 69%
MPI (SDM A364V): 70%
MPI (SDM R361K/V362I/L363M): 91%
MPI (SDM T332S/V362I/prR41G): 97%
MPI (SDM V362I/V370A): 91%
MPI (SDM V370A): 97%
MPI (SDM Wild type): 98%
MPI (SDM ΔV370): 96%
